Source: paper PMC9726829, “Structures and mechanism of chitin synthase and its inhibition by antifungal drug Nikkomycin Z” (Cell Discovery, 2022)

Columns and labels:
S. cerevisiae Chs1 [1] = molecular target: T1, S. cerevisiae Chs1 (Saccharomyces cerevisiae, UniProt P08004); experiment: in vitro chitin synthase activity assay; format: biochemical; settings: activator; UDP-GlcNAc as donor substrate
T1 construct: expressed and purified membrane protein, homodimer; residues numbered to 1131; residues 1-377, 699-703, 897-907, 1076-1084 not resolved
T1 sequence (P08004 1-1131): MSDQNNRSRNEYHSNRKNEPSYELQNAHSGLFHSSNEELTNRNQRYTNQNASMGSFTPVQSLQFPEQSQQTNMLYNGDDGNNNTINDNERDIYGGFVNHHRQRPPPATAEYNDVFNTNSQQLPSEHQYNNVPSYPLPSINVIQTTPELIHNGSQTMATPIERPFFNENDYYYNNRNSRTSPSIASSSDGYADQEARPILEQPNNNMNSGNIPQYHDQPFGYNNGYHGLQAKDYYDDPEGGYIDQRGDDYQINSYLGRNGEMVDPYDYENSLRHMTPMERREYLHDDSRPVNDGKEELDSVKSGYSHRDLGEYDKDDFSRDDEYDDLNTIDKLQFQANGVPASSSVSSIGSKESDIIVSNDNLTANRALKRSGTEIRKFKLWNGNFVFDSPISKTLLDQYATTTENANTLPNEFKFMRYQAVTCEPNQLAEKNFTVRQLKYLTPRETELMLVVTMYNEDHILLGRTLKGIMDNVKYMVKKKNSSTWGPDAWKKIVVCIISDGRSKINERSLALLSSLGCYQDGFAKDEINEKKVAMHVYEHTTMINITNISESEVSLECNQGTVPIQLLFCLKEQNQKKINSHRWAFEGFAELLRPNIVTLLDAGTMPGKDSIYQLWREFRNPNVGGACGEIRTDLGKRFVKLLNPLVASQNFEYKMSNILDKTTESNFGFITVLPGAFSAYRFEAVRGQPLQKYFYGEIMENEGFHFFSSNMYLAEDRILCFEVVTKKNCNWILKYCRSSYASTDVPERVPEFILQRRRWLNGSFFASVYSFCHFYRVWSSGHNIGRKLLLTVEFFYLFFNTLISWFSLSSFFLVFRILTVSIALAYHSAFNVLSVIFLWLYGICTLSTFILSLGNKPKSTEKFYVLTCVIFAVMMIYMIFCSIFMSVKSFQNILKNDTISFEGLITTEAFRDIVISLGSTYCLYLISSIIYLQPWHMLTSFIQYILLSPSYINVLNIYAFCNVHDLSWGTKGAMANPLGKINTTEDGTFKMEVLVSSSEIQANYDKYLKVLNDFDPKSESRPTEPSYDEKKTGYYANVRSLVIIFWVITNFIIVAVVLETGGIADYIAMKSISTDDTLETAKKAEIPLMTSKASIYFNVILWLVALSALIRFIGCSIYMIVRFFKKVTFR

S. cerevisiae Chs1 [2] = molecular target: T1, S. cerevisiae Chs1; experiment: in vitro chitin synthase activity assay; cryo-EM structure of the complex at […] A also solved; format: biochemical
[3] = molecular target: the molecule itself; experiment: cryo-EM structure; purified Chs1 in complex with Nikkomycin Z (NikZ), in detergent micelle; 2.9 Å, imposed C2 symmetry

Molecule: CC(=O)N[C@H]1C(O)O[C@H](CO)[C@@H](O)[C@@H]1O (stereo partly drawn) [N-acetylglucosamine]
- in vitro chitin synthase activity assay (S. cerevisiae Chs1 [1]): Chs1 activity can be significantly stimulated by GlcNAc

Molecule: C[C@@H]([C@H](N)C(=O)N[C@H](C(=O)O)[C@H]1O[C@@H](n2ccc(=O)[nH]c2=O)[C@H](O)[C@@H]1O)[C@H](O)c1ccc(O)cn1 [Nikkomycin Z]
- IC50 (S. cerevisiae Chs1 [2]): 367 nM

B1: S. cerevisiae chitin synthase Chs1 (enzyme)
chain: MSDQNNRSRNEYHSNRKNEPSYELQNAHSGLFHSSNEELTNRNQRYTNQNASMGSFTPVQSLQFPEQSQQTNMLYNGDDGNNNTINDNERDIYGGFVNHHRQRPPPATAEYNDVFNTNSQQLPSEHQYNNVPSYPLPSINVIQTTPELIHNGSQTMATPIERPFFNENDYYYNNRNSRTSPSIASSSDGYADQEARPILEQPNNNMNSGNIPQYHDQPFGYNNGYHGLQAKDYYDDPEGGYIDQRGDDYQINSYLGRNGEMVDPYDYENSLRHMTPMERREYLHDDSRPVNDGKEELDSVKSGYSHRDLGEYDKDDFSRDDEYDDLNTIDKLQFQANGVPASSSVSSIGSKESDIIVSNDNLTANRALKRSGTEIRKFKLWNGNFVFDSPISKTLLDQYATTTENANTLPNEFKFMRYQAVTCEPNQLAEKNFTVRQLKYLTPRETELMLVVTMYNEDHILLGRTLKGIMDNVKYMVKKKNSSTWGPDAWKKIVVCIISDGRSKINERSLALLSSLGCYQDGFAKDEINEKKVAMHVYEHTTMINITNISESEVSLECNQGTVPIQLLFCLKEQNQKKINSHRWAFEGFAELLRPNIVTLLDAGTMPGKDSIYQLWREFRNPNVGGACGEIRTDLGKRFVKLLNPLVASQNFEYKMSNILDKTTESNFGFITVLPGAFSAYRFEAVRGQPLQKYFYGEIMENEGFHFFSSNMYLAEDRILCFEVVTKKNCNWILKYCRSSYASTDVPERVPEFILQRRRWLNGSFFASVYSFCHFYRVWSSGHNIGRKLLLTVEFFYLFFNTLISWFSLSSFFLVFRILTVSIALAYHSAFNVLSVIFLWLYGICTLSTFILSLGNKPKSTEKFYVLTCVIFAVMMIYMIFCSIFMSVKSFQNILKNDTISFEGLITTEAFRDIVISLGSTYCLYLISSIIYLQPWHMLTSFIQYILLSPSYINVLNIYAFCNVHDLSWGTKGAMANPLGKINTTEDGTFKMEVLVSSSEIQANYDKYLKVLNDFDPKSESRPTEPSYDEKKTGYYANVRSLVIIFWVITNFIIVAVVLETGGIADYIAMKSISTDDTLETAKKAEIPLMTSKASIYFNVILWLVALSALIRFIGCSIYMIVRFFKKVTFR
notes: Chitin synthase 1 (Chs1) of S. cerevisiae; residues 1-377, 699-703, 897-907 and 1076-1084 are not resolved in the map; Homodimer; source: expressed and purified
- stoichiometry N [3]: 2
